Molecules are shown by their SMILES.

T1 sequence (Q13639 whole entry): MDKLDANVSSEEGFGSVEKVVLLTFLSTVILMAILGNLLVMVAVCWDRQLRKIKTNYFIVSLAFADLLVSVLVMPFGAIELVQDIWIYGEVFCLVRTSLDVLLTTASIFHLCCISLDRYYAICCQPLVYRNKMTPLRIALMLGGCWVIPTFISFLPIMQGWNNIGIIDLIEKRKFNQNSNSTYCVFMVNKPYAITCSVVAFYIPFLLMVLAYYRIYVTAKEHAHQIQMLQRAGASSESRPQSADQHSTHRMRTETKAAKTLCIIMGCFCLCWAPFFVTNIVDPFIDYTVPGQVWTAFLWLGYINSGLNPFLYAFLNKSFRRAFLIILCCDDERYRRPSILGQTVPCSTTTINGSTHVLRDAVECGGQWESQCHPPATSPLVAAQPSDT

The first data set has as its target T1, human 5-HT4 receptor (Homo sapiens, UniProt Q13639).
T1 construct: expressed in transfected cells; host or cells: COS-7
The data set can be described thus: Binding affinity of compounds for 5-HT4 receptor (radioligand displacement, membrane lysates of COS-7 cells). As to conditions: inhibition of specific binding of 0.595 nM [H3]-AGR113808; COS-7 cell membrane lysates expressing human 5-HT4 receptor. As to the method: For this purpose, COS-7 cells expressing the human 5-HT4 receptor were constructed and lysed to obtain cell membrane lysates which were then used in binding assay experiments. For binding assay, the membrane lysates were mixed and incubated with different concentrations of test materials and [H3]-AGR113808. […] After incubation was completed, the reaction products were collected in a GF/B glass fiber filter using a Packard cell harvester, and the bound radioactivity was then determined using a liquid cell scintillation counter (Packard TopCount NXT™, Perkin Elmer). Specific binding of the radioligand to the 5-HT4 receptor was calculated by subtracting the non-specific binding of the radioligand from the total radioligand binding. IC50 was calculated from % inhibition of specific binding of the radioligand to the 5-HT4 receptor, with respect to varying concentrations of the test materials.
(In general: Displacement assays read how much labelled ligand stays bound in the presence of the test substance.)
Compound `COc1cc(N)c(Cl)cc1C(=O)N[C@H]1CCN(CC2CCN(C(=O)NC(C)C)CC2)C[C@H]1OC` (relative stereo) [Compound 63, 4-[cis-4-(4-amino-5-chloro-2-methoxybenzoylamino)-3-methoxy-piperidin-1-ylmethyl]-piperidine-1-carboxylic acid isopropylamide] registered an IC50 of 25 nM. On to `COc1cc(N)c(Cl)cc1C(=O)N[C@H]1CCN(CC2CCN(C(=O)C(C)(C)C)CC2)C[C@H]1OC` (relative stereo) [Compound 29, cis-4-amino-5-chloro-N-[1-((1-pivaloylpiperidin-4-yl)methyl)-3-methoxypiperidin-4-yl]-2-methoxybenzamide], for which the IC50 was determined as 34 nM. The IC50 values of the last two compounds are within 1.5-fold of each other. On the same count and under the same terms, under `COc1cc(N)c(Cl)cc1C(=O)N[C@H]1CCN(CC2CCN(C(=S)C(C)C)CC2)C[C@H]1OC` (relative stereo) [Compound 30, cis-4-amino-5-chloro-N-[1-((1-(2-methylpropanethioyl)piperidin-4-yl)methyl)-3-methoxypiperidin-4-yl]-2-methoxybenzamide] stands 108 nM.

`COc1cc(N)c(Cl)cc1C(=O)N[C@H]1CCN(CC2CCN(C(=S)CC(C)C)CC2)C[C@H]1OC` (relative stereo) [Compound 36, cis-4-amino-5-chloro-N-[1-((1-(3-methylbutanethioyl)piperidin-4-yl)methyl)-3-methoxypiperidin-4-yl]-2-methoxybenzamide] returned a 50% inhibitory concentration (IC50) of 175 nM. For `COc1cc(N)c(Cl)cc1C(=O)N[C@H]1CCN(CC2CCN(C(C)=S)CC2)C[C@H]1OC` (relative stereo) [Compound 31, cis-4-amino-5-chloro-N-[1-((1-ethanethioylpiperidin-4-yl)methyl)-3-methoxypiperidin-4-yl]-2-methoxybenzamide], the concentration for half-maximal inhibition (IC50) came to 214 nM. The same measure, in the same setting: under `CCCCC(CC)COC(=O)N1CCC(CN2CC[C@H](NC(=O)c3cc(Cl)c(N)cc3OC)[C@H](OC)C2)CC1` (relative stereo) [Compound 11, 2-ethylhexyl 4-[(cis-4-(4-amino-5-chloro-2-methoxybenzamido)-3-methoxypiperidin-1-yl)methyl]piperidine-1-carboxylate] stands 30 nM; under `COc1cc(N)c(Cl)cc1C(=O)N[C@H]1CCN(CCC(=O)Nc2ccc3[nH]ccc3c2)C[C@H]1OC` (relative stereo) [Compound 61, cis-4-amino-5-chloro-N-[1-(3-oxo-3-(1H-indol-5-ylamino)propyl)-3-methoxypiperidin-4-yl]-2-methoxybenzamide], 48 nM. In the case of `CCC(C)CCOC(=O)N1CCC(CN2CC[C@H](NC(=O)c3cc(Cl)c(N)cc3OC)[C@H](OC)C2)CC1` (relative stereo) [Compound 12, 3-methyl-pentyl 4-[(cis-4-(4-amino-5-chloro-2-methoxybenzamido)-3-methoxypiperidin-1-yl)methyl]piperidine-1-carboxylate], the IC50 is 192 nM. On the same count and under the same terms, under `COc1cc(N)c(Cl)cc1C(=O)N[C@H]1CCN(CCCCCC(=O)Nc2cc(C)cc(C)n2)C[C@H]1OC` (relative stereo) [Compound 60, cis-4-amino-5-chloro-N-[1-(6-oxo-6-(4,6-dimethylpyridin-2-ylamino)hexyl)-3-methoxypiperidin-4-yl]-2-methoxybenzamide] stands 85 nM.

Take `COc1cc(N)c(Cl)cc1C(=O)N[C@H]1CCN(CC2CCN(C(=S)CCC(C)C)CC2)C[C@H]1OC` (relative stereo) [Compound 37, cis-4-amino-5-chloro-N-[1-((1-(4-methylpentanethioyl)piperidin-4-yl)methyl)-3-methoxypiperidin-4-yl]-2-methoxybenzamide]: the half-inhibitory concentration (IC50) is 175 nM. This IC50 is about 2.1-fold higher than that of the compound before. On the same count and under the same terms, the value for `CCCC(=S)N1CCC(CN2CC[C@H](NC(=O)c3cc(Cl)c(N)cc3OC)[C@H](OC)C2)CC1` (relative stereo) [Compound 35, cis-4-amino-5-chloro-N-[1-((1-butanethioylpiperidin-4-yl)methyl)-3-methoxypiperidin-4-yl]-2-methoxybenzamide] was 148 nM; that for `COc1cc(N)c(Cl)cc1C(=O)N[C@@H]1CCN(CC2CCN(S(C)(=O)=O)CC2)C[C@@H]1OC` [Compound 44, (3S,4R)-4-amino-5-chloro-N-[1-((1-(methylsulfonyl)piperidin-4-yl)methyl)-3-methoxypiperidin-4-yl]-2-methoxybenzamide] was 116 nM. On the same count and under the same terms, under `CCCCC(=S)N1CCC(CN2CC[C@H](NC(=O)c3cc(Cl)c(N)cc3OC)[C@H](OC)C2)CC1` (relative stereo) [Compound 33, cis-4-amino-5-chloro-N-[1-((1-pentanethioylpiperidin-4-yl)methyl)-3-methoxypiperidin-4-yl]-2-methoxybenzamide] stands 107 nM. On the same count and under the same terms, the value for `COc1cc(N)c(Cl)cc1C(=O)N[C@H]1CCN(CC2CCN(S(C)(=O)=O)CC2)C[C@H]1OC` (relative stereo) [Compound 43, cis-4-amino-5-chloro-N-[1-((1-(methylsulfonyl)piperidin-4-yl)methyl)-3-methoxypiperidin-4-yl]-2-methoxybenzamide] was 167 nM; that for `COc1cc(N)c(Cl)cc1C(=O)N[C@H]1CCN(CC2CCN(C(=O)OCCCC(C)C)CC2)C[C@H]1OC` (relative stereo) [Compound 13, 4-methyl-pentyl 4-[(cis-4-(4-amino-5-chloro-2-methoxybenzamido)-3-methoxypiperidin-1-yl)methyl]piperidine-1-carboxylate] was 146 nM; that for `C=CCOC(=O)N1CCC(CN2CC[C@H](NC(=O)c3cc(Cl)c(N)cc3OC)[C@H](OC)C2)CC1` (relative stereo) [Compound 10, allyl 4-[(cis-4-(4-amino-5-chloro-2-methoxybenzamido)-3-methoxypiperidin-1-yl)methyl]piperidine-1-carboxylate] was 93 nM.

Consider `COc1cc(N)c(Cl)cc1C(=O)N[C@H]1CCN(CC2CCN(C(=O)CC(C)(C)C)CC2)C[C@H]1OC` (relative stereo) [Compound 26, cis-4-amino-5-chloro-N-[1-((1-(3,3-dimethylbutanoyl)piperidin-4-yl)methyl)-3-methoxypiperidin-4-yl]-2-methoxybenzamide], for which the concentration for half-maximal inhibition (IC50) was found to be 45 nM. `CCCCOC(=O)N1CCC(CN2CC[C@H](NC(=O)c3cc(Cl)c(N)cc3OC)[C@H](OC)C2)CC1` (relative stereo) [Compound 7, butyl 4-[(cis-4-(4-amino-5-chloro-2-methoxybenzamido)-3-methoxypiperidin-1-yl)methyl]piperidine-1-carboxylate]: the 50% inhibitory concentration (IC50) is 53 nM. Take `CCCCCC(=S)N1CCC(CN2CC[C@H](NC(=O)c3cc(Cl)c(N)cc3OC)[C@H](OC)C2)CC1` (relative stereo) [Compound 34, cis-4-amino-5-chloro-N-[1-((1-hexanethioylpiperidin-4-yl)methyl)-3-methoxypiperidin-4-yl]-2-methoxybenzamide]: the IC50 was 52 nM. On the same count and under the same terms, under `COc1cc(N)c(Cl)cc1C(=O)N[C@H]1CCN(CCCCCC(=O)Nc2cccc3ncccc23)C[C@H]1OC` (relative stereo) [Compound 58, cis-4-amino-5-chloro-N-[1-(6-oxo-6-(quinolin-5-ylamino)hexyl)-3-methoxypiperidin-4-yl]-2-methoxybenzamide] stands 77 nM; under `CCCCCC(=O)N1CCC(CN2CC[C@H](NC(=O)c3cc(Cl)c(N)cc3OC)[C@H](OC)C2)CC1` (relative stereo) [Compound 23, cis-4-amino-5-chloro-N-[1-((1-hexanoylpiperidin-4-yl)methyl)-3-methoxypiperidin-4-yl]-2-methoxybenzamide], 61 nM; under `CCCC(=O)N1CCC(CN2CC[C@H](NC(=O)c3cc(Cl)c(N)cc3OC)[C@H](OC)C2)CC1` (relative stereo) [Compound 20, cis-4-amino-5-chloro-N-[1-((1-butyrylpiperidin-4-yl)methyl)-3-methoxypiperidin-4-yl]-2-methoxybenzamide], 106 nM. On the same count and under the same terms, under `COc1cc(N)c(Cl)cc1C(=O)N[C@H]1CCN(CC2CCN(S(=O)(=O)C(C)C)CC2)C[C@H]1OC` (relative stereo) [Compound 42, cis-4-amino-5-chloro-N-[1-((1-(isopropylsulfonyl)piperidin-4-yl)methyl)-3-methoxypiperidin-4-yl]-2-methoxybenzamide] stands 47 nM.

The next data set deals with male ICR mice.
Assay: not given
To be noted: male, ICR, mouse, in vivo, po, 2 weeks. As to the method: In order to examine acute toxicity of compounds according to the present invention, the following experiment was carried out.
Over the entire experimental period of 2 weeks, the minimum lethal dose (MLD, mg/kg) of the compound was investigated by the observation of the mortality, body weight and clinical symptoms of animals.
For the compound `COc1cc(N)c(Cl)cc1C(=O)N[C@H]1CCN(CC2CCN(C(=O)C(C)(C)C)CC2)C[C@H]1OC` (relative stereo) [Compound 29, cis-4-amino-5-chloro-N-[1-((1-pivaloylpiperidin-4-yl)methyl)-3-methoxypiperidin-4-yl]-2-methoxybenzamide], the “Minimum lethal dose (MLD, mg/kg)” value is given as above 1000 mg/kg. The same measure, in the same setting: under `CCC(=O)N1CCC(CN2CC[C@H](NC(=O)c3cc(Cl)c(N)cc3OC)[C@H](OC)C2)CC1` (relative stereo) [Compound 17, cis-4-amino-5-chloro-N-[1-((1-propionylpiperidin-4-yl)methyl)-3-methoxypiperidin-4-yl]-2-methoxybenzamide] stands above 1000 mg/kg; under `COc1cc(N)c(Cl)cc1C(=O)NC1CCN(CCCOc2ccc(F)cc2)CC1OC` (stereo not shown) [Cisapride, cisapride, reference compound], above 1000 mg/kg. Still for that read-out and setting: the value for `COc1cc(N)c(Cl)cc1C(=O)N[C@H]1CCN(CCc2noc(C)n2)C[C@H]1OC` (relative stereo) [Compound 54, cis-4-amino-5-chloro-N-[1-(2-(5-methyl-1,2,4-oxadiazol-3-yl)ethyl)-3-methoxypiperidin-4-yl]-2-methoxybenzamide] was above 1000 mg/kg.

The data set is the same for the next values; noted with them: oral, single dose of 1 g/10 mL/kg in 1% hydroxypropylmethylcellulose, 5-week old male ICR mice, observed 2 weeks.
`COc1cc(N)c(Cl)cc1C(=O)N[C@H]1CCN(CC2CCN(C(=O)NC(C)C)CC2)C[C@H]1OC` (relative stereo) [Compound 63, 4-[cis-4-(4-amino-5-chloro-2-methoxybenzoylamino)-3-methoxy-piperidin-1-ylmethyl]-piperidine-1-carboxylic acid isopropylamide]: the “Minimum lethal dose (MLD, mg/kg)” value was above 1000 mg/kg.

A word on the IC50: it is the concentration that gives 50% inhibition.
